Laboratory results from paper PMC6380468, “Investigations on small molecule inhibitors targeting the histone H3K4 tri-methyllysine binding PHD-finger of JmjC histone demethylases” (Bioorganic & Medicinal Chemistry, 2018).

How the values were obtained:
KDM5A_c1 (M1-L801) = target: T1, KDM5A_c1 (M1-L801) (Homo sapiens, UniProt P29375); assay: MALDI-TOF MS H3K4me3 demethylation assay, KDM5A_c1; assay type: biochemical; details: average ± StdDev of n = 2, read-out: IC50, inhibition of H3K4me3 demethylation activity, KDM5A_c1
T1 construct: made in house
T1 sequence (P29375 1-801): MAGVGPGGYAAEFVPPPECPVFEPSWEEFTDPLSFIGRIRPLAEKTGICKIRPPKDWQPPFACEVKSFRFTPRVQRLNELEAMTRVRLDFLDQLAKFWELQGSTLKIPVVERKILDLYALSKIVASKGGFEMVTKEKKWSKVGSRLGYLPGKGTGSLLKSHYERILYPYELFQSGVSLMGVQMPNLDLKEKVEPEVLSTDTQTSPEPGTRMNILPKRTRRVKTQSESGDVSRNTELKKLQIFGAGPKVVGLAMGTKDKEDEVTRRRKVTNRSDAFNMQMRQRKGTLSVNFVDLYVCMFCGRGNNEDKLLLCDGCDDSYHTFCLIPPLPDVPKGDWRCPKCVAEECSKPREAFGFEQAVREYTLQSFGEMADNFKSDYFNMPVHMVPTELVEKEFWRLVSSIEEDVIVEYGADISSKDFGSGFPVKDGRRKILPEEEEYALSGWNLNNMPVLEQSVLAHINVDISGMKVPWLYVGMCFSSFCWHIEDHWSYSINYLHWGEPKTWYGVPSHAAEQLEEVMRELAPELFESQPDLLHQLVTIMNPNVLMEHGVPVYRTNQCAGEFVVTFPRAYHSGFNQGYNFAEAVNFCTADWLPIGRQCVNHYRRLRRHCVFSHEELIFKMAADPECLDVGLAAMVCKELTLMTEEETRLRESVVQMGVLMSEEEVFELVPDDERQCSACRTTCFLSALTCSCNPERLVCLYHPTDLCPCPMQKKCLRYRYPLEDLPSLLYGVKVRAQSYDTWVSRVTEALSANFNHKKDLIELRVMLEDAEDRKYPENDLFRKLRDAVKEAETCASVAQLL
Procedure: (§1) Two catalytically active constructs of KDM5A were employed, KDM5A_c1 (M1-L801) and KDM5A_c2 (ΔARID/PHD1, P13-S744 with L88-G353 (ARID/PHD1) replaced with a GGGG linker) and both KDM5A_c1 and KDM5A_c2 constructs lack the PHD2 and PHD3. […] A MALDI-TOF MS assay was used to measure the activity of H3K4me3 demethylation in the presence of inhibitors (Table 2, Fig. 3C and D).
(§2) The KDM5A mixture (5 µL, KDM5A-c1: 1.0 µM or KDM5A-c2: 0.5 µM) was pre-incubated with 100 nL inhibitors (in DMSO) for 10 min. […] The mixture was quenched using formic acid (5 µL, 1 v/v% in MQ) after 4 minutes (KDM5A-c1) or 3 minutes (KDM5A-c2). The stopped reaction (1 µL) was mixed with […] (CHCA) MALDI matrix (saturated solution in TFA (0.1%) in MilliQ water and trifluoroacetic acid (0.1%) acetonitrile (1:1)) at 1:1 ratio (2 µL), air dried and analysed using Bruker microflex MALDI-TOF controlled with FlexControl. The data were further processed using FlexAnalysis and excel.

KDM5A_c2 (ΔARID/PHD1) = target: T2, KDM5A_c2 (ΔARID/PHD1) (Homo sapiens, UniProt P29375); assay: MALDI-TOF MS H3K4me3 demethylation assay, KDM5A_c2; assay type: biochemical; details: average ± StdDev of n = 2, read-out: IC50, inhibition of H3K4me3 demethylation activity, KDM5A_c2
T2 sequence (P29375 with tags, fused parts or gaps): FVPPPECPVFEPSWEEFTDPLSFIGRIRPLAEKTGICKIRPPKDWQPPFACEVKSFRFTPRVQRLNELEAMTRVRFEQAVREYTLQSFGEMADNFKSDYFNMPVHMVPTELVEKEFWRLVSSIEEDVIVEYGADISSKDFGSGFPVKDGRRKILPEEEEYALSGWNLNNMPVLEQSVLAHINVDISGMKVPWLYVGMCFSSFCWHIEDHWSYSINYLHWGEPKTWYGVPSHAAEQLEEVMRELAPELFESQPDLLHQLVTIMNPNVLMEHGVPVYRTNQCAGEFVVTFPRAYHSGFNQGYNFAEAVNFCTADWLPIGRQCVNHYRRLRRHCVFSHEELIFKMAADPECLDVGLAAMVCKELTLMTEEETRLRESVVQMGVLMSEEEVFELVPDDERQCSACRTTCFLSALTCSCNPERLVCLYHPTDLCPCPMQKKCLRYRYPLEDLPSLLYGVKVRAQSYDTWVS
Procedure: as §1, §2

KDM7C(PHD) = target: T3, KDM7C(PHD) (Homo sapiens, UniProt O75151); assay: AlphaScreen displacement of H3K4me3-Bn from His-KDM7C(PHD); assay type: binding; details: AlphaScreen; 25 nM KDM7C(PHD) and 6.25 nM peptide; n ≥ 3; read-out: IC50 for displacement of H3K4me3-Bn from His-KDM7C(PHD)
T3 construct: made in house
T3 sequence (O75151 5-56 limits assumed): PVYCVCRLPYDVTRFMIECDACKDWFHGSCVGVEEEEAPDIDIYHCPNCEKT
Procedure: (§3) For peptide displacement assays, 5 µL of the inhibitor dilution series (at a concentration of 4% DMSO in AlphaScreen assay buffer) was pre-incubated with 5 µL of the protein at RT for 15 minutes. Peptide solution (5 µL) was added and incubated for 30 minutes at RT, followed by the addition of 5 µL of a mixture of AlphaScreen Streptavidin donor beads and Nickel Chelate acceptor beads in AlphaScreen assay buffer (20 µg/mL final). The contents were incubated for 60-120 minutes at RT in the dark, followed by measurement of luminescence on a BMG Labtech Pherastar plate reader (Software Ver. 5.30 R3, Firmware Ver. 1.21). The data was plotted in Prism Ver 7.01 (GraphPad Software, Inc.) and fitted to a Log(inhibitor) v/s response – variable slope model in order to obtain IC50 values.

KDM7A (PHD-JmjC) = KDM7A (PHD-JmjC) (Homo sapiens, UniProt Q6ZMT4); assay: AlphaScreen displacement of H3K4me3-Bn from His-KDM7A(PHD-JmjC); assay type: binding; details: AlphaScreen displacement of H3K4me3-Bn; n = 3; NI = No inhibition seen at 100 μM; read-out: IC50 KDM7A (PHD-JmjC) (Displacement)
KDM7A (PHD-JmjC), sequence (Q6ZMT4 37-386 limits assumed): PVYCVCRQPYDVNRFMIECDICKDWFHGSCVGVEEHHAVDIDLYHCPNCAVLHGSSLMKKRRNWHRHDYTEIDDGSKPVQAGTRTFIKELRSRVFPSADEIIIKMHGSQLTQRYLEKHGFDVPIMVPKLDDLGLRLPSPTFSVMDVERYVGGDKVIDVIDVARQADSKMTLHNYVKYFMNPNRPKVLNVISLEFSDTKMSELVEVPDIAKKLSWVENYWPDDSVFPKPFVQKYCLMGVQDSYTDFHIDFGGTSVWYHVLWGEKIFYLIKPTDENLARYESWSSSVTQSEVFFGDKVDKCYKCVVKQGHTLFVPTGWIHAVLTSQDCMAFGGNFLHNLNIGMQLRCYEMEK
Procedure: A dual-domain construct of KDM7A/B(PHD-JmjC), consisting of a JmjC domain in addition to the PHD-finger (Fig. 1B), was used to test for allosteric inhibition through binding at the PHD-finger.
as §3

| IC50 (KDM5A_c1 (M1-L801)) | IC50 (KDM5A_c2 (ΔARID/PHD1)) | IC50 (KDM7C(PHD)) | IC50 (KDM7A (PHD-JmjC)) | SMILES |
| --- | --- | --- | --- | --- |
| 80 ± 29 µM | 37 ± 14 µM | 579 ± 87 µM | 149 ± 32 µM | CCCCc1oc2ccccc2c1C(=O)c1ccc(OCCC[N+](C)(C)C)cc1.[I-] [Compound 2a, 3-(4-(2-Butylbenzofuran-3-carbonyl)phenoxy)-N,N,N-trimethylpropan-1-aminium iodide] |
| > 1000 µM | > 1000 µM | 158 ± 30 µM | 295 ± 48 µM | CCCCc1oc2ccccc2c1C(=O)c1ccc(OCCCN(C)C)cc1 [Compound 1a, (2-Butylbenzofuran-3-yl)(4-(3-(dimethylamino)propoxy)phenyl)methanone] |
